Measured values: US20090281049A1, “New use of ginsenoside compound-k in manufacturing medicaments” (priority 2006, published 2009)

Tested on: Collagen Type II (CII) induced arthritis in rats
Test: Treatment effect on Collagen Type II (CII) induced arthritis in rats
Type: in vivo, Rat, SD strain
Experimental: Inflammation-induced agent: Collagen Type II was dissolved in 0.1 mol/L acetic acid to make final concentration be 2 mg/ml collagen solution, and held in 4° C. overnight. The Collagen Type II solution was added to cold Freund's Adjuvant Incomplete by drops (Collagen Type II: Freund's Adjuvant Incomplete=1:1) on the next day, emulsified completely (Type II Collagen solution: Freund's Adjuvant Incomplete=1:1), and the final concentration of Collagen Type II was 1 mg/ml. The Collagen Type II emulsion was reserved in a refrigerator at 4° C.
Immune method: Each rat was immunized by being injected subcutaneously at 5 points on the back with 0.1 ml emulsion in each point, total of […] (contained 0.5 mg Collagen Type II), and immunized again in the same way 7 days later. An emulsion of 0.1 mol/L acetic acid and Freund's Adjuvant Incomplete was injected in control group. The swell values of the arthrosis in right hind ankle and foot were measured respectively by using a hydroplethismometer before injection and 20 days after immunization.
Collagen Type II (CII) and Freund's Adjuvant Incomplete were ground into emulsion and were injected subcutaneously into the back of the rats for immunization. Until the 19th day, most parts of the pedal joint of the rats began to swell. Picked 40 rats out which were with swelled pedal joint and divided them into […] subsequently, i.e. 8 rats in each group. They are respectively […]: Ginsenoside Compound-K, 10 mg/kg, iv, medium dose group: Ginsenoside Compound-K, 5 mg/kg, iv, small dose group: Ginsenoside Compound-K, 2.5 mg/kg, iv, Enbrel group: 9 mg/kg, sc, Tripterygium Wilfordii Hook group: 1.5 mg/kg, po. and blank control group: physiological saline 10 mg/kg, iv. The rats were administered for 8 days consecutively. The swell value of the foot was measured respectively by using hydroplethismometer before inflammation induced and at different time after the onset of symptoms, then calculated swell rate and prohibition rate, and compared the differences among groups with t test.

With `CC(C)=CCC[C@](C)(O[C@@H]1O[C@H](CO)[C@@H](O)[C@H](O)[C@H]1O)[C@H]1CC[C@]2(C)[C@@H]1[C@H](O)C[C@@H]1[C@@]3(C)CC[C@H](O)C(C)(C)[C@@H]3CC[C@]12C` [Ginsenoside Compound-K, ginsenoside Compound-K] as the molecule, how does the swell value (2.5 mg/kg iv, 0 day) read?
Its swell value is 1.03 ± 0.05 mL.

What about the inhibition rate (2.5 mg/kg iv, 20 day) of the same molecule?
Its inhibition rate is <18.95> %.

And the swell rate (2.5 mg/kg iv, 20 day)?
Its swell rate is “(43.79 ± 12.08%”.

What about the swell value (2.5 mg/kg iv, 20 day) of the same molecule?
Its swell value is 1.48 ± 0.11 mL.

And the inhibition rate (2.5 mg/kg iv, 22 day)?
The inhibition rate was <19.94> %.

What about the swell rate (2.5 mg/kg iv, 22 day) of the same molecule?
The swell rate was “(48.22 ± 10.27) %”.

And the swell value (2.5 mg/kg iv, 22 day)?
The swell value was 1.53 ± 0.06 mL.

What about the inhibition rate (2.5 mg/kg iv, 23 day) of the same molecule?
Its inhibition rate is <17.70> %.

And the swell rate (2.5 mg/kg iv, 23 day)?
The swell rate was “(51.23 ± 9.82) %”.

And the swell value (2.5 mg/kg iv, 23 day)?
The swell value was 1.56 ± 0.06 mL.

And the inhibition rate (2.5 mg/kg iv, 25 day)?
The inhibition rate was <16.26> %.

What about the swell rate (2.5 mg/kg iv, 25 day) of the same molecule?
Its swell rate is “(51.66 ± 18.36) %”.

What about the swell value (2.5 mg/kg iv, 25 day) of the same molecule?
The swell value was 1.56 ± 0.16 mL.

And the inhibition rate (2.5 mg/kg iv, 28 day)?
Its inhibition rate is <20.52> %.

And the swell rate (2.5 mg/kg iv, 28 day)?
Its swell rate is “(41.04 ± 10.92) %”.

And the swell value (2.5 mg/kg iv, 28 day)?
The swell value was 1.45 ± 0.10 mL.

What about the inhibition rate (2.5 mg/kg iv, 31 day) of the same molecule?
The inhibition rate was <22.73> %.

And the swell rate (2.5 mg/kg iv, 31 day)?
The swell rate was “(37.86 ± 11.18) %”.

And the swell value (2.5 mg/kg iv, 31 day)?
The swell value was 1.42 ± 0.10 mL.

What about the swell value (5 mg/kg iv, 0 day) of the same molecule?
The swell value was 1.03 ± 0.05 mL.

What about the inhibition rate (5 mg/kg iv, 20 day) of the same molecule?
Its inhibition rate is <9.35> %.

And the swell rate (5 mg/kg iv, 20 day)?
Its swell rate is “(48.97 ± 27.82%”.

And the swell value (5 mg/kg iv, 20 day)?
The swell value was 1.52 ± 0.21 mL.

What about the inhibition rate (5 mg/kg iv, 22 day) of the same molecule?
Its inhibition rate is <12.39> %.

What about the swell rate (5 mg/kg iv, 22 day) of the same molecule?
Its swell rate is “(52.77 ± 21.55) %”.

What about the swell value (5 mg/kg iv, 22 day) of the same molecule?
The swell value was 1.56 ± 0.15 mL.

And the inhibition rate (5 mg/kg iv, 23 day)?
The inhibition rate was <13.87> %.

What about the swell rate (5 mg/kg iv, 23 day) of the same molecule?
The swell rate was “(53.62 ± 14.27) %”.

What about the swell value (5 mg/kg iv, 23 day) of the same molecule?
The swell value was 1.58 ± 0.13 mL.

And the inhibition rate (5 mg/kg iv, 25 day)?
The inhibition rate was <15.62> %.

What about the swell rate (5 mg/kg iv, 25 day) of the same molecule?
Its swell rate is “(52.06 ± 18.56) %”.

What about the swell value (5 mg/kg iv, 25 day) of the same molecule?
Its swell value is 1.56 ± 0.19 mL.

What about the inhibition rate (5 mg/kg iv, 28 day) of the same molecule?
The inhibition rate was <13.17> %.

And the swell rate (5 mg/kg iv, 28 day)?
Its swell rate is “(44.84 ± 25.91) %”.

What about the swell value (5 mg/kg iv, 28 day) of the same molecule?
Its swell value is 1.49 ± 0.28 mL.

And the inhibition rate (5 mg/kg iv, 31 day)?
The inhibition rate was <15.64> %.

What about the swell rate (5 mg/kg iv, 31 day) of the same molecule?
Its swell rate is “(41.34 ± 13.83) %”.

And the swell value (5 mg/kg iv, 31 day)?
The swell value was 1.45 ± 0.13 mL.

And the swell value (10 mg/kg iv, 0 day)?
The swell value was 1.04 ± 0.19 mL.

And the inhibition rate (10 mg/kg iv, 20 day)?
The inhibition rate was <12.61> %.

What about the swell rate (10 mg/kg iv, 20 day) of the same molecule?
Its swell rate is “(47.22 ± 18.60) %”.

And the swell value (10 mg/kg iv, 20 day)?
The swell value was <1.52 ± 0.19 mL.

And the inhibition rate (10 mg/kg iv, 22 day)?
The inhibition rate was <16.28> %.

And the swell rate (10 mg/kg iv, 22 day)?
Its swell rate is “(50.43 ± 9.45) %”.

What about the swell value (10 mg/kg iv, 22 day) of the same molecule?
Its swell value is 1.54 ± 0.12 mL.

What about the inhibition rate (10 mg/kg iv, 23 day) of the same molecule?
The inhibition rate was <19.28> %.

What about the swell rate (10 mg/kg iv, 23 day) of the same molecule?
The swell rate was “(50.25 ± 22.06) %”.

What about the swell value (10 mg/kg iv, 23 day) of the same molecule?
The swell value was 1.54 ± 0.10 mL.

And the inhibition rate (10 mg/kg iv, 25 day)?
Its inhibition rate is <17.95> %.

What about the swell rate (10 mg/kg iv, 25 day) of the same molecule?
Its swell rate is “(50.62 ± 21.43) %”.

What about the swell value (10 mg/kg iv, 25 day) of the same molecule?
The swell value was 1.54 ± 0.12 mL.

What about the inhibition rate (10 mg/kg iv, 28 day) of the same molecule?
Its inhibition rate is <22.09> %.

What about the swell rate (10 mg/kg iv, 28 day) of the same molecule?
Its swell rate is “(40.23 ± 16.26) %”.

And the swell value (10 mg/kg iv, 28 day)?
Its swell value is 1.44 ± 0.13 mL.

What about the inhibition rate (10 mg/kg iv, 31 day) of the same molecule?
Its inhibition rate is <27.67> %.

And the swell rate (10 mg/kg iv, 31 day)?
The swell rate was “(35.44 ± 22.50) %”.

What about the swell value (10 mg/kg iv, 31 day) of the same molecule?
The swell value was 1.38 ± 0.11 mL.

What about the “overall treatment effect on Collagen Type II induced arthritis” value (rats, 10, 5, 2.5 mg/kg iv for 8 days) of the same molecule?
The value was “able to cure Collagen Type II induced arthritis”.
